In EP4311544A1, “COMPOUNDS USEFUL AGAINST JELLYFISH STINGS” (Isdin, S. A., priority 2022, dated 2024):

Tests used:
[1] = system: P. noctiluca; experiment: Tentacle Skin Blood Agarose Assay (TSBAA): venom load as hemolytic area after natural stimulation of nematocyst discharge; format: cell-based; conditions: for discharge of nematocysts: summary statement on the results of Examples 1 and 2
Method: (§1) Jellyfish cultures: Jellyfish were cultivated by laboratory conditions in Loro Parque aquarium (Tenerife, Spain). The P. noctiluca adult individuals were breeding in kreisels tanks with a continuous water renewal, 33-35‰ salinity, 22°C temperature and light cycle of 12h light/12h dark. Individuals were daily fed with Artemia sp. nauplii, small pieces of the jellyfish Aurelia sp., eggs of Merluccius and Parapenaeus longirostris.
Briefly, an agarose gel preparation incorporating sheep red blood cells (SRBCs) (Thermo Fisher Scientific) was used covered by a thin tissue of pig intestine to simulate the effect of the human skin barrier.
A solution of 4% low melting point agarose (INVITROGEN ™ LMP Agarose) in phosphate buffered saline (PBS) (SIGMA) was prepared and cooled to room temperature for a few minutes. The SRBCs were centrifuged and resuspended in PBS until a final concentration of 2% was obtained. Equal volumes of both preparations were mixed and poured onto a glass surface with a mold (18x7.5 cm) and allowed to cool to room temperature. Once the agarose with SRBCs was set, rectangles were cut and placed on slides and kept at 4 °C in a humidification chamber (maximum 72 hours until use).
Pig small intestine tissue was washed in a 50 mM saline solution and then cut in rectangular sections. The sections were sterilized in a disinfecting solution consisting of 87% 110 mM saline, 10% ethanol (PANREAC, ethanol 96%) and 3% hydrogen peroxide for 3 hours, after which they were left in physiological serum overnight. The next day, the sections were stretched on a glass surface and allowed to dry for a few minutes in the open air. The pretreated sections of the pig small intestine were placed on the SRBC agarose rectangles.
Cutting tentacles of the same size is a complicated process due to the contraction and expansion of the tentacles after their manipulation. In order to control the sting area, we design plastic molds obtained through a 3D printer.
Tentacle pieces of approximately 3 cm long were incubated on reductor or inhibitory solutions (Method 3) for 5 minutes. Consecutively, the agarose rectangles were stung by a sting diameter of 57,35 mm^2 for 1 minute. A weight of 0,66 g was applied to ensure the contact between the tentacle and the skin. After the sting process, the plastic molds and the intestine sections were removed and the SRBC's agarose rectangles were stored in the humidification chamber at room temperature. After a period of 22 hours, images of the hemolytic areas were obtained with a camera. Hemolytic areas were calculated using the Fiji version of ImageJ software (J. Schindelin et al., Fiji: an open-source platform for biological-image analysis. Nature methods, 2012, vol. 9, pp. 676-682). Table 2. Inhibitory efficacy on the venom load to P. noctiluca.

[2] = system: P. noctiluca; experiment: Tentacle Solution Assay (TSA): inhibition of chemically stimulated nematocyst discharge; format: cell-based; set-up: key to Inhibitory effect (TSA) using 5% acetic acid as chemical stimulator Discharge: 0: no discharge was observed; +: low discharge of nematocysts; ++: medium discharge of nematocysts; +++: high discharge of nematocysts; key to Inhibitory effect (TSA) using 5% acetic acid as chemical stimulator Effect: Neutral effect solution: nematocysts were not activated after the incubation in the first solution but were activated by the subsequent chemical stimulation with 5% acetic acid solution; Reductor effect solution: nematocysts were not activated after the incubation in the first solution, but some isolated nematocysts discharge was observed activated by the subsequent chemical stimulation with 5% acetic acid solution; Inhibitory effect solution: nematocysts were not activated after the incubation in the first solution or by the subsequent chemical stimulation with 5% acetic acid solution; conditions: tentacle pieces incubated 5 minutes in 3 ml solution, then 15 µl of 5% acetic acid
Method: as §1
Tentacles pieces of approximately 3 cm long were transferred to slides ([…]). The samples were observed under the light microscope in order to ensure their integrity. Subsequently, tentacles were incubated on microwells with 3 ml of each solution for 5 minutes. In order to know the inhibitory effect, the neutral solutions were chemically stimulated by means of 15 µl of 5% acetic acid solution in distilled water (an activator solution per se).
The nematocysts response was classified qualitatively in four categories in accordance with Pyo et al. (2016): • 1. 0: no discharge was observed; • 2. +: low discharge of nematocysts; • 3. ++: medium discharge of nematocysts; • 4. +++: high discharge of nematocysts.
The effect was classified in one of three categories: • 1. Neutral effect solution: nematocysts were not activated after the incubation in the first solution but were activated by the subsequent chemical stimulation with 5% acetic acid solution; • 2. Reductor effect solution: nematocysts were not activated after the incubation in the first solution, but some isolated nematocysts discharge was observed activated by the subsequent chemical stimulation with 5% acetic acid solution; • 3. Inhibitory effect solution: nematocysts were not activated after the incubation in the first solution or by the subsequent chemical stimulation with 5% acetic acid solution. Table 1. Inhibitory efficacy on the nematocyst discharge in P. noctiluca.

SMILES	discharge of nematocysts [1]	Inhibitory effect (TSA) using 5% acetic acid as chemical stimulator Discharge [2]	Inhibitory effect (TSA) using 5% acetic acid as chemical stimulator Effect [2]	Venom load - Hemolytic area (%) ([1]; tentacles incubated 5 minutes in solution, sting 1 minute through pig intestine on sheep red blood cell agarose, read after 22 hours)	% Inhibitory ([1]; {})
CC(C)(C)C1CCC(O)CC1 (stereo not drawn) [4-tert-butyl cyclohexanol]	significantly reduces				
CC(=O)O [5% Acetic acid solution, acetic acid]		+++	Activator		
CC(O)CCO (stereo not drawn) [100% Butylene glycol, butylene glycol]		+	Reductor	26.54 ± 19.66%	56.33%
CCO [100% Ethanol, ethanol]		++	Neutral/Reductor		
CC(O)CO (stereo not drawn) [100% Propylene glycol, propylene glycol]		+	Reductor		
O=C(CO)c1ccccc1 [HAP, hydroxy acetophenone]	significantly reduces				
